How the values were obtained:
Assay type in all cases: cell-based, human
[1] = test system: PBMC isolated from a patient with humoral immune defects; experiment: ELISPOT assay to analyze cross-reactivity of induced CTL (FIG. 3a, 3b); details: PBMC stimulated with ILKDPVHGV (FIG. 3a) or FLKEPVKEL (FIG. 3b)
Procedure: The preferred T-cell analyzing assay was the ELISPOT assay, which has evolved to a standard assay for the detection of antigen-specific T-cells in immunology. ELISPOT assays were conducted using R5AB media consisting of RPMI 1640 medium with supplements and 5% human AB serum (Sigma-Aldrich, Steinheim, Germany). Both freshly isolated lymphocytes from peripheral blood (PBMC) or from lymph nodes and peptide stimulated PBMC were used. Nitrocellulose filter-backed microtiter plates (96 well; MAHA-S-4510, Millipore, Molsheim, Germany) were coated with 50 μl of interferon-γ antibody 1-D1K (Mabtech, Stockholm, Sweden) at a concentration of 10 μg/ml. After four washes with PBS and blocking with R5AB, 5×10^5 PBMC were added in 100 μl R5AB to the precoated wells in duplicate. Peptides were added directly to the wells at a final concentration of 40 μg/ml and the plates were incubated for 10 h at 37° C. in 5% CO2. After six washes with PBS containing 0.05% Tween 20 (PBS/T 0.05%), 100 μl biotinylated interferon-γ monoclonal antibody 7-B6-1 (Mabtech) was incubated at a final concentration of 2 μg/ml for 2 h at 37° C. in 5% CO2. After washing with 0.05% PBS/T, 10011 avidin/peroxidase solution (Vectastain ABC-Kit, Vector Laboratories, CA, USA) was added to each well. […] Spots were counted using a video-based automatic ELISPOT reader (AID Autoimmun Diagnostika, Strassberg, Germany).

HLA-A2-positive T2 cells = experiment: Chromium release assay, CTLs from a HIV patient stimulated with ILKDPVHGV (FIG. 1)
Procedure: After several washing steps the CTLs, isolated from a HIV patient and stimulated for an outgrowth of CTLs with specificity to the peptide ILKDPVHGV, were incubated with the labeled and peptide presenting T2-cells and the release of chromium is measured. Specific lysis depending on the different Peptides presented is indicated.
T-cells isolated from a HIV patient were peptide stimulated with the peptide ILKDPVHGV and small doses of interleukin 2. Outgrowing CTLs were then tested in a chromium release assay for their peptide specific lyses.
For this specific HLA-A2-positive T2-cells, which are a fusion between a B-cell and a T-cell having a TAP-transporter defect and therefore not being capable to present internal Bob-1 protein, were incubated with radioactive labeled chromium and different peptides. Subsequently, after several washing steps the CTLs were incubated with the labeled and peptide presenting T2-cells and the release of chromium is measured.

HLA-A2-positive T2-cells = experiment: Chromium release assay, CTLs from a patient with humoral immune defects stimulated with ILKDPVHGV (FIG. 2); details: 5-hour chromium release
Procedure: After several washing steps the CTLs, isolated from a patient with humoral immune defects and stimulated for an outgrowth of CTLs with specificity to the peptide ILKDPVHGV, were incubated with the labeled and peptide presenting T2-cells and the release of chromium is measured. Specific lysis depending on the different Peptides presented is indicated.
T-cells isolated from a patient with a humoral immune defect were peptide stimulated with the HIV derived peptide ILKDPVHGV and small doses of interleukin 2. Outgrowing CTLs were then tested in a 5-hour chromium release assay for their peptide specific lyses.
For this specific HLA-A2-positive T2-cells, which are a fusion between a B-cell and a T-cell having a TAP-transporter defect and therefore not being capable to present internal Bob-1 protein, were incubated with radioactive labeled chromium and different peptides. Subsequently, after several washing steps the outgrown CTLs were incubated with the labeled and peptide presenting T2-cells and the release of chromium is measured.

PBMC of a healthy person = experiment: gamma-IFN-ELISPOT, in vitro stimulation of PBMC of a healthy person with peptide-loaded dendritic cells (FIG. 14); details: pool 1 or pool 4 presented by autologous dendritic cells
Description: Given are the number of peptide-specific T-cells after stimulation of the pool 1-specific or the pool 4-specific cell lines with the respective pools and the indicated peptides. […] The T-cell lines had been generated by stimulation of peripheral blood mononuclear cells (PBMC) with five different pools containing each five 20 amino acid (aa) long peptides with a 10 amino acid long overlap, corresponding to aa 1 to aa 256 of the Bob-1 protein. The peptide pools were presented by autologous dendritic cells that had been generated by a standard protocoll (Berger T G, Feuerstein B, Strasser E, Hirsch U, Schreiner D, Schuler G, Schuler-Thurner B. Large-scale generation of mature monocyte-derived dendritic cells for clinical application in cell factories. Journal of immunological methods 2002, 268: 131-140). […] Therefore, it represents a model for an in vivo induction of a Bob-1 specific T-cell response.
For this, PBMC of a healthy person were stimulated—as described above—with autologous dendritic cells loaded with a selection of Bob-1 derived peptides. […]

[2] = test system: T-cell lines from an HIV-2 infected patient; experiment: gamma-interferon-ELISPOT-assay, T-cell lines from an HIV-2 infected patient (FIG. 12); details: PBMC stimulated by pool of 5 overlapping peptides aa151-210
Procedure: FIG. 12 Recognition of Bob-1 specific peptide aa171-190 by T-cell lines from an HIV-2 infected patient. PBMC from the patient had been stimulated by a pool of 5 overlapping peptides spanning aa151-210 of the Bob-1 sequence. Outgrowing cells were tested in a gamma-interferon-ELISPOT-assay of recognition of the peptide pool aa151-210 and of the individual peptides.

Sequence | Cross-reactivity of induced CTL in ELISPOT [1] | Specific lysis of peptide presenting T2 cells, cross-reactivity with ILKDPVHGV-specific CTLs (HLA-A2-positive T2 cells) | Specific lysis of peptide presenting T2 cells, recognition and cross-reactivity (HLA-A2-positive T2-cells) | Recognition by T-cell lines, or induction of Bob-1-specific T-cells, gamma-IFN-ELISPOT (PBMC of a healthy person) | Recognition in gamma-interferon-ELISPOT [2]
FLKEPVKEL [modified Bob-1 derived peptide] | strong cross-reactivity | Cross-reactivity | high cross-reactivity | – | –
QAPLTYFPWPQPLSTLPTST [peptide aa171-190] | – | – | – | specific recognition | specific recognition
